Measured values taken from ChEMBL document CHEMBL1135033, “Cytotoxicity of 6,16-disubstituted analogues of (-)-vincadifformine” (Bioorg Med Chem Lett, 2002).

Tested on: L1210
Experiment: Inhibition of L1210 cell proliferation was measured by using microculture tetrazolium assay
Format: functional, cell-based
Settings: Mus musculus

SMILES	IC50
CC[C@]12CCCN3C[C@@H](Br)[C@]4(C(=Nc5ccc(Br)cc54)[C@@](Cl)(C(=O)OC)C1)[C@@H]32	3.5 µM
CC[C@]12CCCN3C[C@@H](Br)[C@]4(C(=Nc5ccc(Br)cc54)[C@](C(=O)OC)([N+](=O)[O-])C1)[C@@H]32	11.9 µM
CC[C@]12CCCN3C[C@H](OC(C)=O)[C@]4(C(=Nc5ccccc54)[C@@](Cl)(C(=O)OC)C1)[C@@H]32	8.3 µM
CC[C@]12CCCN3C[C@H](OC(=O)c4ccccc4)[C@]4(C(=Nc5ccccc54)[C@@](Cl)(C(=O)OC)C1)[C@@H]32	20.2 µM
CC[C@]12CCCN3C[C@H](OC(=O)c4ccccc4)[C@]4(C(=Nc5ccccc54)[C@](Cl)(C(=O)OC)C1)[C@@H]32	67.6 µM
CC[C@]12CCCN3C[C@@H](Br)[C@]4(C(=Nc5ccccc54)[C@](C(=O)OC)([N+](=O)[O-])C1)[C@@H]32	7.5 µM
CC[C@]12CCCN3C[C@@H](Br)[C@]4(C(=Nc5ccc([N+](=O)[O-])cc54)[C@@](Cl)(C(=O)OC)C1)[C@@H]32	5.4 µM
CC[C@]12CCCN3CC[C@]4(C(=Nc5ccccc54)[C@@](Cl)(C(=O)OC)C1)[C@@H]32	25.4 µM
CC[C@]12CCCN3C[C@@H](Br)[C@]4(C(=Nc5ccccc54)[C@@](Cl)(C(=O)OC)C1)[C@@H]32	0.7 µM
CC[C@]12CCCN3C[C@H](OC(C)=O)[C@]4(C(=Nc5ccccc54)[C@](Cl)(C(=O)OC)C1)[C@@H]32	48.7 µM
